Data: patent publication US9433683B2, “Reversible pegylated drugs” (Yeda Research and Development Co., Ltd., priority 2003, dated 2016)
Several values for one entry are separate records, joined by “and”; a condition that tells them apart may be missing. Equal entries are not always repeated.

How the values were obtained:
[1] = test system: Escherichia coli (E. coli strain N-4156-W.T); test: Inhibition of E. coli replication (antibacterial potency of gentamicin and PEG-Fmoc-gentamicin); format: cell-based
[2] = molecular target: T1, hGH-receptor preparation extracted from rabbit liver plasma membranes (Oryctolagus cuniculus, UniProt P19941); test: 125I-hGH displacement from hGH-receptor preparation; format: binding
T1 construct: enriched hGH-receptor preparation extracted from rabbit liver plasma membranes; from tissue; host or cells: rabbit liver plasma membranes
T1 sequence (P19941 19-638): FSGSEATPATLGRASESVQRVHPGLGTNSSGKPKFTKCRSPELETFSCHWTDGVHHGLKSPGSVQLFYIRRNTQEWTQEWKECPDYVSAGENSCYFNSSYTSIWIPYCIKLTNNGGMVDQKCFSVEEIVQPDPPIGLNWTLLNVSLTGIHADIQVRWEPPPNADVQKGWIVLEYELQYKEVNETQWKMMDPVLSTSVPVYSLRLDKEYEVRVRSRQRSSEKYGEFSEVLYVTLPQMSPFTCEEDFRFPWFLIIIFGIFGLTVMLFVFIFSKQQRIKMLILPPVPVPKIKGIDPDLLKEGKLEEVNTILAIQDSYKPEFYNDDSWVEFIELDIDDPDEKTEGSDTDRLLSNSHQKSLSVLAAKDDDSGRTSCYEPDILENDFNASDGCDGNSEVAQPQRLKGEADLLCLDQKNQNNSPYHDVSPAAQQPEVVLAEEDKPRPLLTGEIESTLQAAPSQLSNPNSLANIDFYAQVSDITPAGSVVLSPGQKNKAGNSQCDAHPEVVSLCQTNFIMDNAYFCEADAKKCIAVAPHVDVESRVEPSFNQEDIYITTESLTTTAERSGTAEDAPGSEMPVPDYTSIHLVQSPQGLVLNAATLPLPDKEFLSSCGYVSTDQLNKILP
Description: PEG40000-FMS-hGH (1 mg/ml) was incubated in 0.1 M phosphate buffer, 0.6% BSA and −2 mM NaN3 at 37° C. Aliquots were withdrawn at the indicated time points, and analyzed for their potencies to displace ^125I-hGH from enriched hGH-receptor preparation extracted from rabbit liver plasma membranes. Native hGH displaces ^125I-hGH in this assay half maximally at a concentration of 0.3±0.03 nM. […] PEG40000FMS-hGH (1 mg protein) was incubated as described above. At the indicated time points, 0.1 ml aliquots withdrawn and subjected to analytical HPLC analysis.
The hGH displacement assay was performed as previously described (Tsushima et al., 1980).

[3] = test system: rat adipocytes; test: Lipogenesis ([U-14C]glucose incorporation into lipids) in rat adipocytes; format: cell-based
Description: (4A) Insulin (17.24 nmoles in 0.2 ml 0.01 M NaHCO3) reacted with increasing concentrations of PEG5000-Fmoc-OSu at a molar excess over the protein as indicated in the figure for 2 hours at 25° C. The number of free amino groups that remained unmodified were quantitated with TNBS.
PEG5000-Fmoc-insulin conjugates containing one and two moles of PEG5000-Fmoc/mole insulin were incubated at a concentration of 0.172 μM in 0.1 M NaHCO3-0.5% bovine serum albumin and 1 mM NaN3 at 37° C. At the indicated time points aliquots were analyzed (in several concentrations for each aliquot) for their lipogenic potencies in rat adipocytes.
Results are expressed as a percentage of maximal stimulation.
(ii) Rat adipocytes were prepared from fat pads of male Wistar rats (100-200 gr) by collagenase digestion as described (Rodbell, 1964). The fat pads were cut into small pieces with scissors and suspended in 3 ml of KRB buffer containing NaCl, 110 mM; NaHCO3, 25 mM; Kcl, 5 mM; KH2PO4, 1.2 mM; CaCl2, 1.3 mM; MgSO4, 1.3 mM; and 0.7% BSA (pH 7.4). […] Five ml of buffer was then added, and the cells were passed through a mesh screen. The cells were then allowed to stand for several minutes in a 15 ml plastic test tube at room temperature, floating, and the buffer underneath was removed. This procedure (suspension, floating, and removal of buffer underneath) was repeated three times.
(iii) Lipogenesis (incorporation of [U-^14C] glucose into the lipids of intact adipocytes). The incorporation of [U-^14C] glucose into adipose tissue in rat adipocytes was performed as described (Moody et al., 1974). Adipocyte suspensions (3×10^5 cells/ml) were divided into plastic vials (0.5 ml per vial) and incubated for 60 min at 37° C. under an atmosphere of carbogen with 0.2 mM [U-^14C]glucose, in either the absence or presence of insulin. Lipogenesis was terminated by adding toluene-based scintillation fluid (1.0 ml per vial) and the radioactivity in extracted lipids was counted.
Rat adipocytes were prepared from the fat pads of male Wistar rats (100-200 g) by collagenase digestion (Rodbel, 1964). Lipogenesis (during which [U^14-C] glucose was incorporated into the lipids) was performed using the procedure of Moody et al (Moody et al., 1974). Diabetes was induced by a single intravenous injection of freshly prepared streptozocin (STZ) solution (55 mg/kg body wt) as previously described (Meyerovitch et al., 1987). Rats were maintained at 24° C. under conditions of controlled lighting and were fed ad libitum. Blood samples for the analysis of blood glucose were taken from the tail veins and measured with a glucose analyzer (Beckman Instruments, Fullerton, Calif.) by the glucose oxidase method. Groups consisted of five Wistar rats weighing 170±5 g. Data are presented as means±SE.

[4] = test system: C57BL/6J male mice; test: Food intake (re-feeding after 24 h starvation) in mice; format: in vivo, mouse
Description: Drinking water was provided at all times.
Results are average of four identical experiments.
Drinking water was provided at all times. […] A minimum interval of 1 h was introduced between injection and re-feeding to avoid a stress-dependent decrease in food intake. The amount of food consumed per group was determined at the end of the feeding period. Remaining chow was weighed after the 2 h re-feeding period and the cumulative food intake per 10 mice was calculated. Values of food intake in replicate experiments were normalized according to the saline controls. Results are expressed as food intake per 10 mice±SD from 2-5 replicate experiments.
(vi) Statistical analysis. The significance of differences in food consumption was determined by the Student's t-test, using the total weight of food consumed by each group of 10 mice as a single value. A saline-injected group of 10 mice was included in each experiment as a control. A two-tailed, paired t-test was performed between the control and treated groups.

[5] = Clark et al., 1996; cited from earlier work
[6] = human, in vivo; cited from earlier work
[7] = Hydrolysis of conjugates / release of parent drug upon incubation at pH 8.5, 37° C. (HPLC or TNBS)
[8] = Pharmacokinetic profile of SC 125I-insulin and 125I-HSA in rats; settings: 10 μg 125I-labeled protein
Description: Blood aliquots obtained from the tail vein at the indicated time points were spotted onto Whatman #3 paper and weighed immediately. Each paper was washed with 10% TCA and measured for its radioactive content. […] Each point in the figure represents the arithmetic mean of 5 rats±SE.
Rats were maintained at 24° C. under conditions of controlled lighting and were fed ad libitum. […] Data are presented as means±SE.
For comparison, we subcutaneously administered ^125I-insulin under similar experimental conditions.

[9] = test system: rat adipocytes; test: Lipogenesis ([U-14C]glucose incorporation into lipids) in rat adipocytes; format: cell-based; settings: Example 34 assay, 2 h at 37° C.; HSA conjugates taken as 24±3 μg insulin per mg HSA
[10] = test system: CD1-mice; test: Glucose-lowering potency of insulin and PEG5000-Fmoc-insulin in mice (SC or IP); format: in vivo, mouse
Description: Mice received SC, either native insulin (Zn^2+-free, 1.72 nmole/mouse in 0.2 ml PBS buffer) or (PEG5000-Fmoc)1-insulin (17.2 nmole/mouse, in 0.2 ml PBS buffer). Blood glucose levels were determined at the indicated time points. Each point is the arithmetic mean±SEM of blood glucose of five mice.
Groups of mice received IP either insulin (Zn^2+-free, 0.345 nmol/mouse, in 0.2 ml PBS buffer) or (PEG5000-Fmoc)1-insulin (3.45 nmoles/mouse, in 0.2 ml PBS buffer). Blood glucose levels were determined at the indicated time points. Each point in the figure is the arithmetic mean±SEM of five mice.
(iv) Glucose-lowering potency of insulin and its derivatives was determined in mice following administration under the conditions specified in each experiment. […] Each group consisted of 4-5 mice. Data are presented as means±SEM.
Native insulin (Zn^2+ free, 1.72 nmol/mouse) or (PEG5000-Fmoc)1-insulin (17.2 nmoles/mouse) were administered subcutaneously to groups of mice (n=5 in each group), and the glucose lowering profiles were determined. Native insulin reduced blood glucose level maximally at 30 min.
In order to differentiate between these factors, the subcutaneous compartment was bypassed by administering native insulin (Zn^2+-free, 0.345 nmoles/mouse, in 0.2 ml PBS buffer) or (PEG5000-Fmoc)1-insulin (3.45 nmoles/mouse, in 0.2 ml PBS buffer) intraperitoneally. The glucose lowering capacities were then monitored. Blood glucose levels were determined at different time points.

[11] = SC 5 nmol/mouse, 18 h prior to re-feeding

## gentamicin
[1]
  IC50: 0.22 ± 0.02 µM
  concentration inhibiting E. coli replication half-maximally: 0.1 µg/mL

## (PEG40-FMS)2-hGH: two PEG40-FMS moieties linked to hGH
[2]; 37° C., normal rat serum or pH 8.5
  native-receptor binding capacity following 50 hours of incubation: 70-80%

## (PEG5000-Fmoc)2-insulin: insulin conjugate containing two moles of PEG5000-Fmoc/mole insulin
[3]; after 30±2 hours at pH 8.5, 37° C.
  lipogenic activity, % of native insulin potency: 45±3%
[3]; after 80±4 hours at pH 8.5, 37° C.
  lipogenic activity, % of native insulin potency: 90%
[3]; incubation at pH 8.5, 37° C.
  lag period before regeneration of lipogenic potency: 10 ± 1 h and 10 h

## PEG40-PYY3-36: Irreversibly pegylated PYY3-36, one PEG40 residue per PYY3-36 [reference compound]
[4]; SC 5 nmol/mouse, 1 h prior to re-feeding
  biological activity of irreversibly pegylated PYY3-36 on food intake: No significant reduction in food intake

## (PEG5000)5 hGH: hGH with about five PEG5000 chains linked irreversibly (Clark et al., 1996)
[5]
  biological potency of hGH: less than 0.1%

## hGH: Recombinant hGH
[6]
  t1/2 of clearance from the circulatory system: 0.333 to 0.5 h

## PEG40-FMS-hGH
[2]; in vitro, prior to incubation
  receptor binding affinity: no receptor binding affinity
[7]
  k (h^−1), slope of ln [PEG-FMS conjugate] against time: 0.059 h^−1

## insulin: Human (Zn2+-free) insulin [reference compound]
[8]
  t1/2 of decline in blood: 9.0 ± 1.0 h
  time of peak value in blood after administration: 1 ± 0.1 h
[9]
  ED50 in lipogenic assay: 0.3 ± 0.01 ng/mL and 0.3 ng/mL
[10]; IP, 0.345 nmoles/mouse
  time of maximal fall of circulating glucose: 15 min
[10]; SC, 1.72 nmol/mouse
  time of maximal reduction of blood glucose level: 30 min
[3]
  stimulation of lipogenesis above basal levels: 4-6 times above basal and 4-5 times above basal
[3]; rat adipocytes, Example 28 assay
  ED50 for stimulation of lipogenesis: 0.2 ± 0.02 ng/mL and 0.15 ± 0.03 ng/mL

## PEG40-FMS-PYY3-36: 1:1 conjugate of PEG40-SH and MAL-FMS-PYY3-36
[4]; [11]
  food consumed in 2 h re-feeding: 4.7±0.14 g chow per 10 mice
  reduction in food intake compared with saline: 52%
[4]; SC 5 nmol/mouse, 24 h prior to re-feeding
  reduction in food intake: 27%
[4]; mouse, in vivo
  half-life of satiety effect, longer than unmodified PYY3-36: 8 fold
[7]; after 40 h
  cumulative amount of free PYY3-36, % of input conjugate: 79%

## (PEG5000-Fmoc)1-insulin: about one mol PEG-Fmoc per mol insulin
[10]; IP administration
  return to normoglycemia, slower than native hormone: 3.4 fold
[10]; IP, 3.45 nmoles/mouse
  time of maximal fall of circulating glucose: 60 min
  time of return to normal glucose values after administration: 6 h
[10]; SC, 17.2 nmoles/mouse
  additional time maintained at the low glucose level: 4 h
  time of maximal lowering of circulating glucose: 4 h
[10]; single SC administration
  half time of return to normoglycemic values relative to native insulin: 6.7 fold
[3]; after 2 hours at pH 8.5, 37° C.
  lipogenic activity, % of native potency: 16%
[3]; after 4 hours at pH 8.5, 37° C.
  lipogenic activity, % of native potency: 24%
[3]; after 10 hours at pH 8.5, 37° C.
  lipogenic activity, % of native potency: 30%
[3]; after 17 hours at pH 8.5, 37° C.
  lipogenic activity, % of native potency: 36%
[3]; after 80 hours at pH 8.5, 37° C.
  lipogenic activity, % of native potency: 95%
[3]; prior to hydrolysis / time 0
  biological (lipogenic) potency of the native hormone: 7±1%

## Nα-Nε-diacetyl-PYY3-36: PYY3-36 acetylated at its two amino groups [reference compound]
[4]; 20 μg per mouse
  food consumed in 2 h re-feeding: 10.54±0.08 g chow per 10 mice

## PEG5000-Fmoc-insulin: insulin preparations with 0.3 to 2.2 mol PEG5000-Fmoc incorporated per mol insulin
[3]; 0.3 mol PEG5000-Fmoc/mol insulin incorporated
  biological (lipogenic) potency relative to native insulin: 87±4%
[3]; 0.6 mol PEG5000-Fmoc/mol insulin incorporated
  biological (lipogenic) potency relative to native insulin: 60±3%
[3]; 1.1 mol PEG5000-Fmoc/mol insulin incorporated
  biological (lipogenic) potency relative to native insulin: 8±1%
[3]; 1.5 mol PEG5000-Fmoc/mol insulin incorporated
  biological (lipogenic) potency relative to native insulin: 4±0.3%
[3]; 2.2 mol PEG5000-Fmoc/mol insulin incorporated
  biological (lipogenic) potency relative to native insulin: less than 1%
